Results taken from ChEMBL document CHEMBL5335826, “Biochemical and Structural Studies of the Carminomycin 4-O-Methyltransferase DnrK” (J Nat Prod, 2024).

What was measured:
[1] = system: PC-3; assay: Cytotoxicity against human PC-3 cells assessed as reduction in cell viability incubated for 72 hrs by alamar blue assay; type: functional, cell-based; details: PC-3, 72 h
[2] = system: A549; assay: Cytotoxicity against human A549 cells assessed as reduction in cell viability incubated for 72 hrs by alamar blue assay; type: functional, cell-based; details: A549, 72 h

## CO[C@H]1[C@H](O[C@@H]2c3c(cc4c(c3O)C(=O)c3c(O)cccc3C4=O)C(=O)[C@@](C)(O)[C@H]2OC)O[C@@H](C)[C@H](O)[C@H]1O [ARANCIAMYCIN]
[1]
  IC50: 1100 nM
[2]
  IC50: 2700 nM

## COc1cc(O)c2c(c1)C(=O)c1cc3c(c(O)c1C2=O)[C@@H](O[C@@H]1O[C@@H](C)[C@H](OC)[C@@H](O)[C@H]1OC)[C@H](OC)[C@](C)(O)C3=O
[1]
  IC50: 3100 nM
[2]
  IC50: 2800 nM

## COc1cccc2c1C(=O)c1c(cc3c(c1O)[C@@H](O[C@@H]1O[C@@H](C)[C@H](O)[C@@H](O)[C@H]1OC)[C@H](OC)[C@](C)(O)C3=O)C2=O
[1]
  IC50: 4300 nM
[2]
  IC50: 13800 nM

## CC(=O)[C@]1(O)Cc2c(O)c3c(c(O)c2[C@@H](O[C@H]2C[C@H](N)[C@H](O)[C@H](C)O2)C1)C(=O)c1c(O)cccc1C3=O [CARUBICIN]
[1]
  IC50: 35 nM
[2]
  IC50: 13.1 nM

## COc1cccc2c1C(=O)c1c(O)c3c(c(O)c1C2=O)C[C@@](O)(C(C)=O)C[C@@H]3O[C@H]1C[C@H](N)[C@H](O)[C@H](C)O1 [DAUNORUBICIN]
[1]
  IC50: 170 nM
[2]
  IC50: 199 nM
